Data on seven molecules can be found in US20100216779A1 (GLAXOSMITHKLINE LLC, priority 2007, published 2010).

pIC50: −log10 of the molar value.

Holding throughout (assay type): cell-based
For test [1], the target named is T1, human IGF-1R (NIH-3T3 cells over expressing human IGF-1R) (Homo sapiens, UniProt P08069).
T1 construct: expressed in transfected cells; host or cells: NIH-3T3 (mouse fibroblasts)
The test is described as follows: IGF-1R cellular autophosphorylation (DELFIA). The note with it: IGF-1 stimulated. The method, boiled down:
(§1)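 Read-out: DELFIA on lysates, receptor-specific capture antibody plus europium-labelled anti-phosphotyrosine, reported as % of IGF-1- or insulin-stimulated signal. Transfected NIH-3T3 cells got compound (30 uM–1.5 nM, 2 h) before a 15 min ligand pulse: IGF-1 30 ng/mL for IGF-1R, insulin 3 ug/mL for IR.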

Test [2] has as its target T2, IR (NIH-3T3 cells over expressing human IGF-1R or IR) (Homo sapiens, UniProt P06213).
T2 construct: expressed in transfected cells; host or cells: NIH-3T3 (mouse fibroblasts)
The test is described as follows: IR cellular autophosphorylation (DELFIA). The note with it: NIH-3T3 cells over expressing IR, insulin stimulated. The method, boiled down: as §1

Test [3] relates to NCI-H929 (multiple myeloma). The test is described as follows: Inhibition of cell proliferation, CellTiter-Glo, NCI-H929. The settings on record: Homo sapiens, 72 h. The method, boiled down:
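Cells were grown in medium with 10% FBS at 37° C, 5% CO2. Cell number was read as CellTiter-Glo luminescence (cellular ATP), with untreated wells as control.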
(Cellular ATP, detected with luciferase, serves as a proxy for viable cell number.)

A further test concerns COLO205 (colon). Briefly: Inhibition of cell proliferation, CellTiter-Glo, COLO205. The settings on record: Homo sapiens, COLO 205, 72 h. The method, boiled down: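 Exponentially growing COLO205 cells in medium with 10% FBS were plated below 2000 cells/well at 37 °C, 5% CO2. Untreated wells served as controls.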

T2 sequence (P06213 28-1382): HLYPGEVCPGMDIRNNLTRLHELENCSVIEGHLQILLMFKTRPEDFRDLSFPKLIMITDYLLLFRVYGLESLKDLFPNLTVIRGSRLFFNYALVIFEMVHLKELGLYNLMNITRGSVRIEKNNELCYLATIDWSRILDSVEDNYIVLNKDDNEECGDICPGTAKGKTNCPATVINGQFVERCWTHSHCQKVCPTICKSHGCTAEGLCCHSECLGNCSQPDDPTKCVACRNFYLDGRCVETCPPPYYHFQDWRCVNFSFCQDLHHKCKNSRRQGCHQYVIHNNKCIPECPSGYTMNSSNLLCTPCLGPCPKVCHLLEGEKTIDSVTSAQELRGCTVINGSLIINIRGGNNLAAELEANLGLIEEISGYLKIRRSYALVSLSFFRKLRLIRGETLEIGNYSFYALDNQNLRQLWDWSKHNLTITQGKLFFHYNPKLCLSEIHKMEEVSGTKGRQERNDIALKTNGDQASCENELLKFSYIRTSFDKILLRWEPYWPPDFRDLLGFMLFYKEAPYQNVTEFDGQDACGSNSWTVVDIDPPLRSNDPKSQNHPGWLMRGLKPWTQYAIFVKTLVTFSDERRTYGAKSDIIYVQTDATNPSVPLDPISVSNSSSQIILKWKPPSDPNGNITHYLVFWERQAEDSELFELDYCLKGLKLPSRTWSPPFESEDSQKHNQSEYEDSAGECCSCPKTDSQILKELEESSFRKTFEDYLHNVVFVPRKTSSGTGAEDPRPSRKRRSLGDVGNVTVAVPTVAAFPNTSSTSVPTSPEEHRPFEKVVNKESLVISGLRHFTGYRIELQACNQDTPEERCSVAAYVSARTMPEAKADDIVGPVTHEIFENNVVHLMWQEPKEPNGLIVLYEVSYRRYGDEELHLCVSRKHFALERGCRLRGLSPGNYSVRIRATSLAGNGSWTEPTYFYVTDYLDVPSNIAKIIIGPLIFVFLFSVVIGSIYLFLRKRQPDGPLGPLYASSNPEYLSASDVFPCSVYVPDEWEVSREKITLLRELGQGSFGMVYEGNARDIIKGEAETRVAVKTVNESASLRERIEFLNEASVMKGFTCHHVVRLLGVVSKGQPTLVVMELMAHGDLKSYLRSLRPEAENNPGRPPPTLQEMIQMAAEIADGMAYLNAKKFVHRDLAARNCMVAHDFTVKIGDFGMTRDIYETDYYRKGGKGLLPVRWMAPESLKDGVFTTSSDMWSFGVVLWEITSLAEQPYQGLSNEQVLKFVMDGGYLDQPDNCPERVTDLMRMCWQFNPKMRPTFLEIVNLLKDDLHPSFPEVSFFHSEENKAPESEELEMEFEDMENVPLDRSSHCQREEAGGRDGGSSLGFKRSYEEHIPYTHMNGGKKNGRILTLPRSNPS
T1 sequence (P08069 31-1367): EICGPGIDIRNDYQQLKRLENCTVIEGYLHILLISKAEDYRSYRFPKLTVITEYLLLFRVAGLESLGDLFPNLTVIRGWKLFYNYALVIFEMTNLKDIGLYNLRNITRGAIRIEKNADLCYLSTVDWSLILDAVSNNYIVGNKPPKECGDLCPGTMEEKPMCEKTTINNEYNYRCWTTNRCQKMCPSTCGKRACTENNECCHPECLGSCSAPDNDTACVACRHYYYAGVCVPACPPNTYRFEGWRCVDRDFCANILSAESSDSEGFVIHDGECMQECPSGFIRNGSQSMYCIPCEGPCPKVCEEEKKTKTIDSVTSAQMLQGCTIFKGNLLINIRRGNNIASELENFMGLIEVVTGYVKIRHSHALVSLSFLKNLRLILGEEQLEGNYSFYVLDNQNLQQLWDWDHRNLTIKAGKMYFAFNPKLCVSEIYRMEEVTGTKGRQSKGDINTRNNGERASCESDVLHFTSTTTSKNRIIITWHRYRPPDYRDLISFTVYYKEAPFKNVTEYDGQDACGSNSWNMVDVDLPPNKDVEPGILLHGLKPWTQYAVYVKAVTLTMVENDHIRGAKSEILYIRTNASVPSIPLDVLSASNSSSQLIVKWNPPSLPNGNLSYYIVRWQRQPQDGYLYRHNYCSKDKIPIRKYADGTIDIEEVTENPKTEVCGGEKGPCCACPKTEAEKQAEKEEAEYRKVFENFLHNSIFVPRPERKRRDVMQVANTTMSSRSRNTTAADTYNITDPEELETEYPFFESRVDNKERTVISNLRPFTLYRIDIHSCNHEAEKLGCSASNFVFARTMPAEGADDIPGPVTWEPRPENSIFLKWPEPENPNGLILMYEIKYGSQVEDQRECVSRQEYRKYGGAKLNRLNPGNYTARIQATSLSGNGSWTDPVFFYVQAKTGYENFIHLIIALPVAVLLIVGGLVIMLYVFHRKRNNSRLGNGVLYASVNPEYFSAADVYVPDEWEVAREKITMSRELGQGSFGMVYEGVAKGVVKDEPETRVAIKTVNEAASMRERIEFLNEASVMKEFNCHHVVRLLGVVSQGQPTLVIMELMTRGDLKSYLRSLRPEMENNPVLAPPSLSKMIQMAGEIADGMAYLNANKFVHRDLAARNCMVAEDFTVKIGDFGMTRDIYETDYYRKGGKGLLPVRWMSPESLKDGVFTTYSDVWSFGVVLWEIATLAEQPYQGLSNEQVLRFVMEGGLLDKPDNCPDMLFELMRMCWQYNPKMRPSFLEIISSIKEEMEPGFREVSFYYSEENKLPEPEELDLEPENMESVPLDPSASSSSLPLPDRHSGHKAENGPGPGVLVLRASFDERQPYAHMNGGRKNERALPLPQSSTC

For `CCCN1CCC(c2cc(OC)c(Nc3nccc(-c4c(-c5cccc(C(=O)Nc6c(F)cccc6F)c5)nc5ccccn45)n3)cc2C)CC1` [Example 159, N-(2,6-difluorophenyl)-3-[3-(2-{[5-methyl-2-(methyloxy)-4-(1-propyl-4-piperidinyl)phenyl]amino}-4-pyrimidinyl)imidazo[1,2-a]pyridin-2-yl]benzamide], the pIC50 in test [1] is greater than 7.00; in test [2], greater than 7.00; in test [3], greater than 6.60; with COLO205 (colon) it was 6.00 to 6.60.
Regarding `CCCN1CCC(c2ccc(Nc3nccc(-c4c(-c5ccc(OCC)c(C(=O)Nc6c(F)cccc6F)c5)nc5ccccn45)n3)c(OCC)c2)CC1` [Example 156, N-(2,6-difluorophenyl)-2-(ethyloxy)-5-[3-(2-{[2-(ethyloxy)-4-(1-propyl-4-piperidinyl)phenyl]amino}-4-pyrimidinyl)imidazo[1,2-a]pyridin-2-yl]benzamide], the pIC50 in test [1] is greater than 7.00; in test [2], greater than 7.00; in test [3] it was greater than 6.60; in the test on COLO205 (colon) it was 6.00 to 6.60.
With `COc1cc(N2CCC(N3CCCN(C)CC3)CC2)ccc1Nc1nccc(-c2c(-c3cccc(C(=O)Nc4c(F)cccc4F)c3)nc3ccccn23)n1` [Example 48, N-(2,6-difluorophenyl)-3-[3-(2-{[4-[4-(4-methylhexahydro-1H-1,4-diazepin-1-yl)-1-piperidinyl}-2-(methyloxy)phenyl]amino}-4-pyrimidinyl)imidazo[1,2-a]pyridin-2-yl]benzamide], the negative-log IC50 (pIC50) in test [1] is greater than 7.00; in test [2] it was 6.30 to 7.00; in test [3] it was 6.00 to 6.60; with COLO205 (colon), 6.00 to 6.60.
On to `COc1cc(N2CCC(N3CCC(CCS(C)(=O)=O)CC3)CC2)ccc1Nc1nccc(-c2c(-c3cccc(C(=O)Nc4c(F)cccc4F)c3)nc3ccccn23)n1` [Example 101, N-(2,6-difluorophenyl)-3-(3-{2-[(2-(methyloxy)-4-{4-[2-(methylsulfonyl)ethyl)-1,4′-bipiperidin-1′-yl]phenyl)amino]-4-pyrimidinyl}imidazo[1,2-a]pyridin-2-yl)benzamide], for which the negative-log IC50 (pIC50) was greater than 7.00 in test [1], greater than 7.00 in test [2], greater than 6.60 in test [3] and 6.00 to 6.60 in the test with COLO205 (colon).
`COc1cc(C2CCN(CC(C)C)CC2)ccc1Nc1nccc(-c2c(-c3ccc(OC)c(C(=O)Nc4c(F)cccc4F)c3)nc3ccccn23)n1` [Example 160, N-(2,6-difluorophenyl)-2-(methyloxy)-5-{3-[2-({2-(methyloxy)-4-[1-(2-methylpropyl)-4-piperidinyl]phenyl}amino)-4-pyrimidinyl]imidazo[1,2-a]pyridin-2-yl}benzamide]: the pIC50 is greater than 7.00 in test [1], greater than 7.00 in test [2], greater than 6.60 in test [3] and 6.00 to 6.60 in the test with COLO205 (colon).
For `COCCN1CCN(c2cc(OC)c(Nc3nccc(-c4c(-c5ccc(OC)c(C(=O)Nc6c(F)cccc6F)c5)nc5ccccn45)n3)cc2C)CC1` [Example 242, N-(2,6-difluorophenyl)-5-(3-{2-[(5-methyl-2-(methyloxy)-4-{4-[2-(methyloxy)ethyl]-1-piperazinyl}phenyl)amino]-4-pyrimidinyl}imidazo[1,2-a]pyridin-2-yl)-2-(methyloxy)benzamide], the negative-log IC50 (pIC50) is greater than 7.00 in test [1], greater than 7.00 in test [2], greater than 6.60 in test [3] and 6.00 to 6.60 in the test with COLO205 (colon).
With `CCOc1ccc(-c2nc3ccccn3c2-c2ccnc(Nc3ccc(N4CCC(N5CCN(S(C)(=O)=O)CC5)CC4)cc3OC)n2)cc1C(=O)Nc1c(F)cccc1F` [Example 228, N-(2,6-difluorophenyl)-2-(ethyloxy)-5-(3-{2-[(2-(methyloxy)-4-{4-[4-(methylsulfonyl)-1-piperazinyl]-1-piperidinyl}phenyl)amino]-4-pyrimidinyl}imidazo[1,2-a]pyridin-2-yl)benzamide], the pIC50 in test [1] is greater than 7.00; in test [2], greater than 7.00; in test [3], greater than 6.60; in the test on COLO205 (colon), greater than 6.60.

By pIC50 is commonly meant −log10 of the IC50, conventionally taken in molar units. Low values mean a large IC50, high ones a small IC50.
